The target in this experiment is T1, human LXRβ (Homo sapiens, UniProt P55055).
T1 construct: expressed in transfected cells; host or cells: HEK293 cells (ATCC CRL-1573), transient transfection with pFA-hLXRβ/GAL4 and pUAS
T1 sequence (P55055 222-460 limits assumed): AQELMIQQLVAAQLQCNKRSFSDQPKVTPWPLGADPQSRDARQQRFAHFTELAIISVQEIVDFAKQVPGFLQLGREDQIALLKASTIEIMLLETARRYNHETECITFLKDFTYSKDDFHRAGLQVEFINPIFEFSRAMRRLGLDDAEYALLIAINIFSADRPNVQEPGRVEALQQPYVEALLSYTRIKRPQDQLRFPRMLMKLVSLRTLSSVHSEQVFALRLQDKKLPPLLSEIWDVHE
Put plainly: Assay for Transcriptional Activity of LXRβ (GAL4-hLXRβ LBD luciferase reporter, transient transfection). It is filed as cell-based. Particulars: HEK293 cells transfected with pFA-hLXRβ/GAL4 and pUAS, 24 hours; for Emax: fold value in comparison with the control (DMSO-treated group); for EC50: increase of transcriptional activity of LXRβ, average of three independent tests. In short, it runs like this:
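EC50 values, averaged over three independent runs, come from a four-parameter fit of 9-point half-log curves spanning 0.01–50 μM. Luciferase output was read in lysed HEK293 cells 24 h after dosing at 37 °C, following transient transfection with a GAL4-human LXRβ LBD fusion plus GAL4-responsive reporter.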

Compound `O=C(CCC1CCCC1)N1CC=C(c2cccc(C3CC(C(O)(C(F)(F)F)C(F)(F)F)=NN3c3ccccc3Cl)c2)CC1` (stereo not shown) [Example 233, 1-(2-chloro-phenyl)-5-{3-[1-(3-cyclopentyl-propionyl)-1,2,3,6-tetrahydropyridin-4-yl]-phenyl}-3-[di-(trifluoromethyl)-hydroxy-methyl]-4,5-dihydro-1H-pyrazole] showed an Emax of 72 fold and an EC50 of 21 nM.
The corresponding values for `O=C(c1cccs1)N1CC=C(c2cccc(C3CC(C(O)(C(F)(F)F)C(F)(F)F)=NN3c3ccccc3Cl)c2)CC1` (stereo not shown) [Example 234, 1-(2-chloro-phenyl)-5-{3-[1-(thiophene-2-carbonyl)-1,2,3,6-tetrahydropyridin-4-yl]-phenyl}-3-[di-(trifluoromethyl)-hydroxy-methyl]-4,5-dihydro-1H-pyrazole] are 49 fold and 13 nM.
The corresponding values for `O=C(c1ccccc1)N1CC=C(c2cccc(C3CC(C(O)(C(F)(F)F)C(F)(F)F)=NN3c3ccccc3Cl)c2)CC1` (stereo not shown) [Example 235, 5-[3-(1-benzoyl-1,2,3,6-tetrahydropyridin-4-yl)-phenyl]-1-(2-chloro-phenyl)-3-[di-(trifluoromethyl)-hydroxy-methyl]-4,5-dihydro-1H-pyrazole] are 63 fold and 31 nM.
For `O=C(Cc1ccccc1)N1CC=C(c2cccc(C3CC(C(O)(C(F)(F)F)C(F)(F)F)=NN3c3ccccc3Cl)c2)CC1` (stereo not shown) [Example 236, 1-(2-chloro-phenyl)-5-[3-(1-phenylacetyl-1,2,3,6-tetrahydropyridin-4-yl)-phenyl]-3-[di-(trifluoromethyl)-hydroxy-methyl]-4,5-dihydro-1H-pyrazole], the Emax is 71 fold and the EC50 is 49 nM.
The corresponding values for `O=C(c1ccc(Cl)cc1)N1CC=C(c2cccc(C3CC(C(O)(C(F)(F)F)C(F)(F)F)=NN3c3ccccc3Cl)c2)CC1` (stereo not shown) [Example 237, 5-{3-[1-(4-chloro-benzoyl)-1,2,3,6-tetrahydropyridin-4-yl]-phenyl}-1-(2-chloro-phenyl)-3-[di-(trifluoromethyl)-hydroxy-methyl]-4,5-dihydro-1H-pyrazole] are 81 fold and 119 nM.
On to `CN(C)S(=O)(=O)N1CC=C(c2cccc(C3CC(C(O)(C(F)(F)F)C(F)(F)F)=NN3c3ccccc3Cl)c2)CC1` (stereo not shown) [Example 240, 1-(2-chloro-phenyl)-5-[3-(1-dimethylsulfamoyl-1,2,3,6-tetrahydropyridin-4-yl)-phenyl]-3-[di-(trifluoromethyl)-hydroxy-methyl]-4,5-dihydro-1H-pyrazole], for which the Emax came out at 44 fold and a half-maximal effect (EC50) was put at 157 nM.
In turn, `CC(=O)c1ccccc1-c1ccc(C2CC(C(O)(C(F)(F)F)C(F)(F)F)=NN2c2ccccc2Cl)cc1` (stereo not shown) [Example 241, 5-(2′-acetyl-biphenyl-4-yl)-1-(2-chloro-phenyl)-3-[di-(trifluoromethyl)-hydroxy-methyl]-4,5-dihydro-1H-pyrazole] showed an Emax of 47 fold and an EC50 of 3350 nM.
In turn, `COc1ccc(-c2ccc(C3CC(C(O)(C(F)(F)F)C(F)(F)F)=NN3c3ccccc3Cl)cc2)cc1` (stereo not shown) [Example 242, 1-(2-chloro-phenyl)-5-(4′-methoxy-biphenyl-4-yl)-3-[di-(trifluoromethyl)-hydroxy-methyl]-4,5-dihydro-1H-pyrazole] gave an Emax of 89 fold and an EC50 of 14100 nM.
`CSc1ccc(-c2ccc(C3CC(C(O)(C(F)(F)F)C(F)(F)F)=NN3c3ccccc3Cl)cc2)cc1` (stereo not shown) [Example 243, 1-(2-chloro-phenyl)-5-[4′-(methylsulfanyl)-biphenyl-4-yl]-3-[di-(trifluoromethyl)-hydroxy-methyl]-4,5-dihydro-1H-pyrazole] came in with an Emax of 112 fold and an EC50 of 617 nM.
The corresponding values for `CS(=O)(=O)c1ccc(-c2ccc(C3CC(C(O)(C(F)(F)F)C(F)(F)F)=NN3c3ccccc3Cl)cc2)cc1` (stereo not shown) [Example 244, 1-(2-chloro-phenyl)-5-[4′-(methanesulfonyl)-biphenyl-4-yl]-3-[di-(trifluoromethyl)-hydroxy-methyl]-4,5-dihydro-1H-pyrazole] are 100 fold and 298 nM.
With `COc1cccc(OC)c1-c1ccc(C2CC(C(O)(C(F)(F)F)C(F)(F)F)=NN2c2ccccc2Cl)cc1` (stereo not shown) [Example 245, 1-(2-chloro-phenyl)-5-(2′,6′-dimethoxy-biphenyl-4-yl)-3-[di-(trifluoromethyl)-hydroxy-methyl]-4,5-dihydro-1H-pyrazole], the Emax was 57 fold and the EC50 turned out to be 2430 nM.
`OC(C1=NN(c2ccccc2Cl)C(c2ccc(-c3ccc(F)cc3)cc2)C1)(C(F)(F)F)C(F)(F)F` (stereo not shown) [Example 246, 1-(2-chloro-phenyl)-5-(4′-fluoro-biphenyl-4-yl)-3-[di-(trifluoromethyl)-hydroxy-methyl]-4,5-dihydro-1H-pyrazole] showed an Emax of 47 fold and an EC50 of 1410 nM.
As for `OC(C1=NN(c2ccccc2Cl)C(c2ccc(-c3ccc(C(F)(F)F)cc3)cc2)C1)(C(F)(F)F)C(F)(F)F` (stereo not shown) [Example 247, 1-(2-chloro-phenyl)-5-[4′-(trifluoromethyl)-biphenyl-4-yl]-3-[di-(trifluoromethyl)-hydroxy-methyl]-4,5-dihydro-1H-pyrazole], the Emax was found to be 33 fold and a half-maximal effect (EC50) was put at 2030 nM.
In the case of `OC(C1=NN(c2ccccc2Cl)C(c2ccc(-c3cccc(OC(F)(F)F)c3)cc2)C1)(C(F)(F)F)C(F)(F)F` (stereo not shown) [Example 248, 1-(2-chloro-phenyl)-5-[3′-(trifluoromethoxy)-biphenyl-4-yl]-3-[di-(trifluoromethyl)-hydroxy-methyl]-4,5-dihydro-1H-pyrazole], the Emax amounted to 43 fold and a half-maximal response (EC50) required 2480 nM.
The corresponding values for `Cc1ccccc1-c1ccc(C2CC(C(O)(C(F)(F)F)C(F)(F)F)=NN2c2ccccc2Cl)cc1` (stereo not shown) [Example 249, 1-(2-chloro-phenyl)-5-(2′-methyl-biphenyl-4-yl)-3-[di-(trifluoromethyl)-hydroxy-methyl]-4,5-dihydro-1H-pyrazole] are 115 fold and 784 nM.
With `Cc1ccc(-c2ccc(C3CC(C(O)(C(F)(F)F)C(F)(F)F)=NN3c3ccccc3Cl)cc2)cc1` (stereo not shown) [Example 250, 1-(2-chloro-phenyl)-5-(4′-methyl-biphenyl-4-yl)-3-[di-(trifluoromethyl)-hydroxy-methyl]-4,5-dihydro-1H-pyrazole], the Emax is reported as 107 fold and the EC50 worked out at 625 nM.
The corresponding values for `CCOc1cccc(-c2ccc(C3CC(C(O)(C(F)(F)F)C(F)(F)F)=NN3c3ccccc3Cl)cc2)c1` (stereo not shown) [Example 251, 1-(2-chloro-phenyl)-5-(3′-ethoxy-biphenyl-4-yl)-3-[di-(trifluoromethyl)-hydroxy-methyl]-4,5-dihydro-1H-pyrazole] are 96 fold and 1950 nM.
The corresponding values for `Oc1cccc(-c2ccc(C3CC(C(O)(C(F)(F)F)C(F)(F)F)=NN3c3ccccc3Cl)cc2)c1` (stereo not shown) [Example 252, 1-(2-chloro-phenyl)-5-(3′-hydroxy-biphenyl-4-yl)-3-[di-(trifluoromethyl)-hydroxy-methyl]-4,5-dihydro-1H-pyrazole] are 62 fold and 2350 nM.
Compound `Nc1cccc(-c2ccc(C3CC(C(O)(C(F)(F)F)C(F)(F)F)=NN3c3ccccc3Cl)cc2)c1` (stereo not shown) [Example 253, 5-(3′-amino-biphenyl-4-yl)-1-(2-chloro-phenyl)-3-[di-(trifluoromethyl)-hydroxy-methyl]-4,5-dihydro-1H-pyrazole] had an Emax of 55 fold and an EC50 of 1070 nM.
For `CN(C)c1ccc(-c2ccc(C3CC(C(O)(C(F)(F)F)C(F)(F)F)=NN3c3ccccc3Cl)cc2)cc1` (stereo not shown) [Example 254, 1-(2-chloro-phenyl)-5-(4′-dimethylamino-biphenyl-4-yl)-3-[di-(trifluoromethyl)-hydroxy-methyl]-4,5-dihydro-1H-pyrazole] the same measures were 50 fold and 7060 nM.
Regarding `COc1ccc(-c2ccc(C3CC(C(O)(C(F)(F)F)C(F)(F)F)=NN3c3ccccc3Cl)cc2)c(Cl)c1` (stereo not shown) [Example 255, 5-(2′-chloro-4′-methoxy-biphenyl-4-yl)-1-(2-chloro-phenyl)-3-[di-(trifluoromethyl)-hydroxy-methyl]-4,5-dihydro-1H-pyrazole], the Emax was 58 fold and the EC50 is 1080 nM.
The corresponding values for `OC(C1=NN(c2ccccc2Cl)C(c2ccc(-c3ccc(F)c(Cl)c3)cc2)C1)(C(F)(F)F)C(F)(F)F` (stereo not shown) [Example 256, 5-(3′-chloro-4′-fluoro-biphenyl-4-yl)-1-(2-chloro-phenyl)-3-[di-(trifluoromethyl)-hydroxy-methyl]-4,5-dihydro-1H-pyrazole] are 51 fold and 729 nM.
Turning to `OC(C1=NN(c2ccccc2Cl)C(c2ccc(-c3ccoc3)cc2)C1)(C(F)(F)F)C(F)(F)F` (stereo not shown) [Example 257, 1-(2-chloro-phenyl)-5-(4-furan-3-yl-phenyl)-3-[di-(trifluoromethyl)-hydroxy-methyl]-4,5-dihydro-1H-pyrazole], the Emax was determined as 57 fold and a half-maximal effect (EC50) was put at 1840 nM.
